# Experimental data as given in patent US20090012045A1, “Methods of Treating Cell Proliferative Disorders” (RIGEL PHARMACEUTICALS, INC., priority 2007, published 2009).
# Experiments:
# RXF 393 = RXF 393 (Renal Cancer)
# HL-60(TB) = HL-60(TB) (Leukemia)
# UO-31 = UO-31 (Renal Cancer)
# SF-295 = SF-295 (CNS Cancer)
# EKVX = EKVX (Non-Small Cell Lung Cancer)
# UACC-257 = UACC-257 (Melanoma)
# SK-MEL-2 = SK-MEL-2 (Melanoma)
# RPM1-8226 = RPM1-8226 (Leukemia)
# NCI-H226 = NCI-H226 (Non-Small Cell Lung Cancer)
# MOLT-4 = MOLT-4 (Leukemia)
# HS 578T = HS 578T (Breast Cancer)
# SW-620 = SW-620 (Colon Cancer)
# PC-3 = assay: in vitro antiproliferation assay, Prostate Cancer; settings: PC-3 (Prostate Cancer)
# HCT-116 = HCT-116 (Colon Cancer)
# KM12 = KM12 (Colon Cancer)
# BT-549 = BT-549 (Breast Cancer)
# NCI-H522 = NCI-H522 (Non-Small Cell Lung Cancer)
# SK-MEL-28 = SK-MEL-28 (Melanoma)
# A498 = A498 (Renal Cancer)
# NCI/ADR-RES = NCI/ADR-RES (Breast Cancer)
# LOX I MVI = LOX I MVI (Melanoma)
# U251 = U251 (CNS Cancer)
# SNB-19 = SNB-19 (CNS Cancer)
# SF-539 = SF-539 (CNS Cancer)
# OVCAR-4 = OVCAR-4 (Ovarian Cancer)
# NCI-H460 = NCI-H460 (Non-Small Cell Lung Cancer)
# UACC-62 = UACC-62 (Melanoma)
smiles,measurement,setting,value
"COc1cc(Nc2ncc(F)c(Nc3ccc4c(n3)NC(=O)C(C)(C)O4)n2)cc(OC)c1OC.O=S(=O)(O)c1ccccc1 [Compound 1 (besylate salt), N4-(2,2-Dimethyl-3-oxo-4H-5-pyrid[1,4]oxazin-6-yl)-5-fluoro-N2-(3,4,5-trimethoxyphenyl)-2,4-pyrimidinediamine Benzenesulfonic Acid Salt]",GI50,RXF 393,0.196 µM
same,TGI,RXF 393,7.74E−7
same,CC50,RXF 393; read-out: LC50,> 100 µM
same,GI50,HL-60(TB),> 100 µM
same,TGI,HL-60(TB),>1.00E−4
same,CC50,HL-60(TB); read-out: LC50,> 100 µM
same,GI50,UO-31,0.596 µM
same,TGI,UO-31,>1.00E−4
same,CC50,UO-31; read-out: LC50,> 100 µM
same,TGI,SF-295,>1.00E−4
same,CC50,SF-295; read-out: LC50,> 100 µM
same,GI50,EKVX,1.66 µM
same,TGI,EKVX,>1.00E−4
same,CC50,EKVX; read-out: LC50,> 100 µM
same,GI50,UACC-257,> 100 µM
same,TGI,UACC-257,>1.00E−4
same,CC50,UACC-257; read-out: LC50,> 100 µM
same,GI50,SK-MEL-2,> 100 µM
same,TGI,SK-MEL-2,>1.00E−4
same,CC50,SK-MEL-2; read-out: LC50,> 100 µM
same,GI50,RPM1-8226,> 100 µM
same,TGI,RPM1-8226,>1.00E−4
same,CC50,RPM1-8226; read-out: LC50,> 100 µM
same,GI50,NCI-H226,0.497 µM
same,CC50,NCI-H226; read-out: LC50,> 100 µM
same,GI50,MOLT-4,4.82 µM
same,TGI,MOLT-4,>1.00E−4
same,CC50,MOLT-4; read-out: LC50,> 100 µM
same,GI50,HS 578T,1.19 µM
same,TGI,HS 578T,>1.00E−4
same,CC50,HS 578T; read-out: LC50,> 100 µM
same,TGI,SW-620,>1.00E−4
same,CC50,SW-620; read-out: LC50,> 100 µM
same,GI50,PC-3,3.07 µM
same,TGI,PC-3,>1.00E−4
same,CC50,PC-3; read-out: LC50,> 100 µM
same,TGI,HCT-116,>1.00E−4
same,CC50,HCT-116; read-out: LC50,> 100 µM
same,GI50,KM12,0.355 µM
same,TGI,KM12,>1.00E−4
same,CC50,KM12; read-out: LC50,> 100 µM
same,GI50,BT-549,2.43 µM
same,TGI,BT-549,>1.00E−4
same,CC50,BT-549; read-out: LC50,> 100 µM
same,TGI,NCI-H522,>1.00E−4
same,CC50,NCI-H522; read-out: LC50,> 100 µM
same,GI50,SK-MEL-28,> 100 µM
same,TGI,SK-MEL-28,>1.00E−4
same,CC50,SK-MEL-28; read-out: LC50,> 100 µM
same,GI50,A498,0.36 µM
same,CC50,A498; read-out: LC50,> 100 µM
same,GI50,NCI/ADR-RES,> 100 µM
same,TGI,NCI/ADR-RES,>1.00E−4
same,CC50,NCI/ADR-RES; read-out: LC50,> 100 µM
same,GI50,LOX I MVI,1.13 µM
same,TGI,LOX I MVI,1.13E−6
same,CC50,LOX I MVI; read-out: LC50,> 100 µM
same,TGI,U251,>1.00E−4
same,CC50,U251; read-out: LC50,> 100 µM
same,GI50,SNB-19,> 100 µM
same,TGI,SNB-19,>1.00E−4
same,CC50,SNB-19; read-out: LC50,> 100 µM
same,GI50,SF-539,0.605 µM
same,CC50,SF-539; read-out: LC50,> 100 µM
same,GI50,OVCAR-4,> 100 µM
same,TGI,OVCAR-4,>1.00E−4
same,CC50,OVCAR-4; read-out: LC50,> 100 µM
same,TGI,NCI-H460,>1.00E−4
same,CC50,NCI-H460; read-out: LC50,> 100 µM
same,TGI,UACC-62,>1.00E−4
same,CC50,UACC-62; read-out: LC50,> 100 µM
